Test results reported in patent publication US6352958B1, “Cycloimido-substituted benzofused heterocyclic herbicides” (FMC Corporation, priority 1997, dated 2002).

Tests used:
[1] = test system: Johnsongrass (Sorghum halepense); experiment: Postemergence herbicidal activity, johnsongrass; type: in vivo; details: rate of application 0.3 Kg/Ha, rated after 12-17 days
[2] = test system: wheat (Triticum aestivum var. Lew); experiment: Preemergence herbicidal activity, wheat; type: in vivo; details: Rate of Application 0.3 Kg/Ha, examined after 12-17 days
[3] = test system: common cocklebur (Xanthium strumarium L.); experiment: Postemergence herbicidal activity, cocklebur; type: in vivo; details: rate of application 0.3 Kg/Ha, rated after 12-17 days
[4] = test system: common cocklebur (Xanthium strumarium L.); experiment: Preemergence herbicidal activity, cocklebur; type: in vivo; details: Rate of Application 0.3 Kg/Ha, examined after 12-17 days
[5] = test system: wheat (Triticum aestivum var. Lew); experiment: Postemergence herbicidal activity, wheat; type: in vivo; details: rate of application 0.3 Kg/Ha, rated after 12-17 days
[6] = test system: morningglory (Ipomea lacunosa or Ipomea hederacea); experiment: Preemergence herbicidal activity, morningglory; type: in vivo; details: Rate of Application 0.3 Kg/Ha, examined after 12-17 days
[7] = test system: green foxtail (Setaria viridis); experiment: Preemergence herbicidal activity, green foxtail; type: in vivo; details: Rate of Application 0.3 Kg/Ha, examined after 12-17 days
[8] = test system: green foxtail (Setaria viridis); experiment: Postemergence herbicidal activity, green foxtail; type: in vivo; details: rate of application 0.3 Kg/Ha, rated after 12-17 days
[9] = test system: soybean (Glycine max var. Winchester); experiment: Postemergence herbicidal activity, soybean; type: in vivo; details: rate of application 0.3 Kg/Ha, rated after 12-17 days
[10] = test system: blackgrass (Aloepecurus myosuroides); experiment: Preemergence herbicidal activity, blackgrass; type: in vivo; details: Rate of Application 0.3 Kg/Ha, examined after 12-17 days
[11] = test system: field corn (Zea mays var. Pioneer 3732); experiment: Postemergence herbicidal activity, corn; type: in vivo; details: rate of application 0.3 Kg/Ha, rated after 12-17 days
[12] = test system: velvetleaf (Abutilon theophrasti); experiment: Postemergence herbicidal activity, velvetleaf; type: in vivo; details: rate of application 0.3 Kg/Ha, rated after 12-17 days
[13] = test system: Johnsongrass (Sorghum halepense); experiment: Preemergence herbicidal activity, johnsongrass; type: in vivo; details: Rate of Application 0.3 Kg/Ha, examined after 12-17 days
[14] = test system: common chickweed (Stellaria media); experiment: Preemergence herbicidal activity, chickweed; type: in vivo; details: Rate of Application 0.3 Kg/Ha, examined after 12-17 days
[15] = test system: field corn (Zea mays var. Pioneer 3732); experiment: Preemergence herbicidal activity, corn; type: in vivo; details: Rate of Application 0.3 Kg/Ha, examined after 12-17 days
[16] = test system: velvetleaf (Abutilon theophrasti); experiment: Preemergence herbicidal activity, velvetleaf; type: in vivo; details: Rate of Application 0.3 Kg/Ha, examined after 12-17 days
[17] = test system: morningglory (Ipomea lacunosa or Ipomea hederacea); experiment: Postemergence herbicidal activity, morningglory; type: in vivo; details: rate of application 0.3 Kg/Ha, rated after 12-17 days
[18] = test system: soybean (Glycine max var. Winchester); experiment: Preemergence herbicidal activity, soybean; type: in vivo; details: Rate of Application 0.3 Kg/Ha, examined after 12-17 days
[19] = test system: blackgrass (Aloepecurus myosuroides); experiment: Postemergence herbicidal activity, blackgrass; type: in vivo; details: rate of application 0.3 Kg/Ha, rated after 12-17 days
[20] = test system: common chickweed (Stellaria media); experiment: Postemergence herbicidal activity, chickweed; type: in vivo; details: rate of application 0.3 Kg/Ha, rated after 12-17 days

SMILES | Postemergence herbicidal activity (% control) SORHA [1] [%] | PREEMERGENCE HERBICIDAL ACTIVITY (% CONTROL) WHT [2] [%] | Postemergence herbicidal activity (% control) XANPE [3] [%] | PREEMERGENCE HERBICIDAL ACTIVITY (% CONTROL) XANPE [4] [%] | Postemergence herbicidal activity (% control) WHT [5] [%] | PREEMERGENCE HERBICIDAL ACTIVITY (% CONTROL) IPOSS [6] [%] | PREEMERGENCE HERBICIDAL ACTIVITY (% CONTROL) SETVI [7] [%] | Postemergence herbicidal activity (% control) STEME [20] [%] | Postemergence herbicidal activity (% control) SETVI [8] [%] | Postemergence herbicidal activity (% control) SOY [9] [%] | PREEMERGENCE HERBICIDAL ACTIVITY (% CONTROL) ALOMY [10] [%] | Postemergence herbicidal activity (% control) CRN [11] [%] | Postemergence herbicidal activity (% control) ABUTH [12] [%] | PREEMERGENCE HERBICIDAL ACTIVITY (% CONTROL) SORHA [13] [%] | PREEMERGENCE HERBICIDAL ACTIVITY (% CONTROL) STEME [14] [%] | PREEMERGENCE HERBICIDAL ACTIVITY (% CONTROL) CRN [15] [%] | PREEMERGENCE HERBICIDAL ACTIVITY (% CONTROL) ABUTH [16] [%] | Postemergence herbicidal activity (% control) IPOSS [17] [%] | PREEMERGENCE HERBICIDAL ACTIVITY (% CONTROL) SOY [18] [%] | Postemergence herbicidal activity (% control) ALOMY [19] [%] | other results
Cn1c(C(F)(F)F)cc(=O)n(-c2c(F)cc(Cl)c3[nH]c(C(C)(C)C)nc23)c1=O [Compound 369, 3-(2-T-BUTYL4-CHLORO-6-FLUOROBENZIMIDAZOL-7-YL)-1-METHYL-6-TRIFLUOROMETHYL-2,4(1H,3H)-PYRIMIDINEDIONE] | – | – | – | – | – | – | – | – | – | – | – | – | – | – | – | – | – | – | – | – | inhibition at 300 g/ha ([1]; Sorghum halepense, post-emergence, read-out: Postemergence herbicidal activity (% control) SORHA): 100%; inhibition at 300 g/ha ([2]; Triticum aestivum, pre-emergence, read-out: PREEMERGENCE HERBICIDAL ACTIVITY (% CONTROL) WHT): 100%; inhibition at 300 g/ha ([3]; Xanthium strumarium, post-emergence, read-out: Postemergence herbicidal activity (% control) XANPE): 100%; melting point: 125 to 130 °C; inhibition at 300 g/ha ([4]; Xanthium strumarium, pre-emergence, read-out: PREEMERGENCE HERBICIDAL ACTIVITY (% CONTROL) XANPE): 100%; inhibition at 300 g/ha ([5]; Triticum aestivum, post-emergence, read-out: Postemergence herbicidal activity (% control) WHT): 80%; inhibition at 300 g/ha ([6]; Ipomoea, pre-emergence, read-out: PREEMERGENCE HERBICIDAL ACTIVITY (% CONTROL) IPOSS): 100%; inhibition at 300 g/ha ([7]; Setaria viridis, pre-emergence, read-out: PREEMERGENCE HERBICIDAL ACTIVITY (% CONTROL) SETVI): 100%; inhibition at 300 g/ha ([8]; Setaria viridis, post-emergence, read-out: Postemergence herbicidal activity (% control) SETVI): 100%; inhibition at 300 g/ha ([9]; Glycine max, post-emergence, read-out: Postemergence herbicidal activity (% control) SOY): 100%; inhibition at 300 g/ha ([10]; Alopecurus myosuroides, pre-emergence, read-out: PREEMERGENCE HERBICIDAL ACTIVITY (% CONTROL) ALOMY): 100%; inhibition at 300 g/ha ([11]; Zea mays, post-emergence, read-out: Postemergence herbicidal activity (% control) CRN): 100%; inhibition at 300 g/ha ([12]; Abutilon theophrasti, post-emergence, read-out: Postemergence herbicidal activity (% control) ABUTH): 100%; inhibition at 300 g/ha ([13]; Sorghum halepense, pre-emergence, read-out: PREEMERGENCE HERBICIDAL ACTIVITY (% CONTROL) SORHA): 100%; inhibition at 300 g/ha ([14]; Stellaria media, pre-emergence, read-out: PREEMERGENCE HERBICIDAL ACTIVITY (% CONTROL) STEME): 100%; inhibition at 300 g/ha ([15]; Zea mays, pre-emergence, read-out: PREEMERGENCE HERBICIDAL ACTIVITY (% CONTROL) CRN): 100%; inhibition at 300 g/ha ([16]; Abutilon theophrasti, pre-emergence, read-out: PREEMERGENCE HERBICIDAL ACTIVITY (% CONTROL) ABUTH): 100%; inhibition at 300 g/ha ([17]; Ipomoea, post-emergence, read-out: Postemergence herbicidal activity (% control) IPOSS): 100%; inhibition at 300 g/ha ([18]; Glycine max, pre-emergence, read-out: PREEMERGENCE HERBICIDAL ACTIVITY (% CONTROL) SOY): 100%; inhibition at 300 g/ha ([19]; Alopecurus myosuroides, post-emergence, read-out: Postemergence herbicidal activity (% control) ALOMY): 100%
Cn1c(C(F)(F)F)cc(=O)n(-c2c(F)cc(Cl)c3c2nc(C(F)(F)F)n3C)c1=O [Compound 399] | 60 | 80 | 100 | 70 | 30 | 95 | 100 | 100 | 70 | 95 | 60 | 70 | 100 | 0 | 100 | 95 | 100 | 100 | 95 | 50 | –
COCc1nc2c(-n3c(=O)cc(C(F)(F)F)n(C)c3=O)c(F)cc(Cl)c2[nH]1 [Compound 370] | 100 | 100 | 100 | 100 | 95 | 100 | 100 | 100 | 100 | 100 | 90 | 100 | 100 | 100 | 100 | 95 | 100 | 100 | 100 | 100 | –
CCc1nc2c(-n3c(=O)cc(C(F)(F)F)n(C)c3=O)c(F)cc(Cl)c2o1 [Compound 25] | 90 | 100 | 100 | 95 | 80 | 100 | 100 | 100 | 100 | 100 | 90 | 90 | 100 | 100 | 100 | 100 | 100 | 100 | 100 | 80 | –
